Experiments:
[1] = target: T1, von Hippel-Lindau disease tumor suppressor (Homo sapiens, UniProt P40337); experiment: Binding affinity to NanoLuc-fused VHL (unknown origin) transfected in live HEK293 cells using NanoGlo as substrate assessed as dissociation constant incubated for 1 hrs by tracer based NanoBRET assay; format: cell-based
[2] = target: T1, von Hippel-Lindau disease tumor suppressor; experiment: Inhibition of NanoLuc-fused VHL (unknown origin) transfected in live HEK293 cells using NanoGlo as substrate incubated for 1 hrs by tracer based NanoBRET assay; format: cell-based
[3] = tested on: von Hippel-Lindau disease tumor suppressor/Bromodomain-containing protein 4; experiment: PROTAC activity at VHL/BRD4 in human VCaP cells assessed as maximum degradation of BRD4 by Western blot analysis relative to control
[4] = target: von Hippel-Lindau disease tumor suppressor/Bromodomain-containing protein 4; experiment: PROTAC activity at VHL/BRD4 in human 22Rv1 cells assessed as induction of BRD4 degradation by Immunoblot analysis
[5] = target: T2, von Hippel-Lindau disease tumor suppressor/Bromodomain-containing protein 2 (Homo sapiens, UniProt P25440+P40337); experiment: PROTAC activity at VHL/BRD2 in human 22Rv1 cells assessed as induction of BRD2 degradation by Immunoblot analysis; format: cell-based
Target sequence in this assay (P25440 whole entry): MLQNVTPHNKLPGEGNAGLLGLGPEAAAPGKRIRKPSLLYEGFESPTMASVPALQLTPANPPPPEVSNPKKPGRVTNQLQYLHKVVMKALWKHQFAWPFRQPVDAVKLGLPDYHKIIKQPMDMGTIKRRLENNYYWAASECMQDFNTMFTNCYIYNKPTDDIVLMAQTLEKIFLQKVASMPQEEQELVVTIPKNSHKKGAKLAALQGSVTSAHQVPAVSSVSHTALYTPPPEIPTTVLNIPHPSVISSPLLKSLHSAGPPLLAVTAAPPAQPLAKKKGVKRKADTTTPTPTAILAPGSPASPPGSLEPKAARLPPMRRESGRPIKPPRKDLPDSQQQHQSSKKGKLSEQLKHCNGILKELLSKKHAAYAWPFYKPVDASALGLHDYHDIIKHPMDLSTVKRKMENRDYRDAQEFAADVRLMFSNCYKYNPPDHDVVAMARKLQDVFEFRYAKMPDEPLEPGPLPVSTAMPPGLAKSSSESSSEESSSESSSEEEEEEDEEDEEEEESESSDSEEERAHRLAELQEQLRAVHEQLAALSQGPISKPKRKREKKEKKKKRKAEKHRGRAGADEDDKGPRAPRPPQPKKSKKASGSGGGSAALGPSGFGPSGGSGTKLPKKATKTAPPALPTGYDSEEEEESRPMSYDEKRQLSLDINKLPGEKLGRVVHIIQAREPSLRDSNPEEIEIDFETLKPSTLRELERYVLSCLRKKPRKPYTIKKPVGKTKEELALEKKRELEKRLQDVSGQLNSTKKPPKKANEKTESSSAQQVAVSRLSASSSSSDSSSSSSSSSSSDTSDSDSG
Target sequence in this assay (P40337 whole entry): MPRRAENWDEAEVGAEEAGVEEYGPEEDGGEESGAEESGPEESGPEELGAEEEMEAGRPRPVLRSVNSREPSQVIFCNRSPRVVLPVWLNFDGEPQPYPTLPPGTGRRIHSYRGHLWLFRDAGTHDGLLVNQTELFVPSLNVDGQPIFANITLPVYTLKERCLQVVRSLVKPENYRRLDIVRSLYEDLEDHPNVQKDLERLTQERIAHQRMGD

[6] = target: T3, von Hippel-Lindau disease tumor suppressor/Bromodomain-containing protein 3 (Homo sapiens, UniProt Q15059+P40337); experiment: PROTAC activity at VHL/BRD3 in human 22Rv1 cells assessed as induction of BRD3 degradation by Immunoblot analysis; format: cell-based
Target sequence in this assay (Q15059 whole entry): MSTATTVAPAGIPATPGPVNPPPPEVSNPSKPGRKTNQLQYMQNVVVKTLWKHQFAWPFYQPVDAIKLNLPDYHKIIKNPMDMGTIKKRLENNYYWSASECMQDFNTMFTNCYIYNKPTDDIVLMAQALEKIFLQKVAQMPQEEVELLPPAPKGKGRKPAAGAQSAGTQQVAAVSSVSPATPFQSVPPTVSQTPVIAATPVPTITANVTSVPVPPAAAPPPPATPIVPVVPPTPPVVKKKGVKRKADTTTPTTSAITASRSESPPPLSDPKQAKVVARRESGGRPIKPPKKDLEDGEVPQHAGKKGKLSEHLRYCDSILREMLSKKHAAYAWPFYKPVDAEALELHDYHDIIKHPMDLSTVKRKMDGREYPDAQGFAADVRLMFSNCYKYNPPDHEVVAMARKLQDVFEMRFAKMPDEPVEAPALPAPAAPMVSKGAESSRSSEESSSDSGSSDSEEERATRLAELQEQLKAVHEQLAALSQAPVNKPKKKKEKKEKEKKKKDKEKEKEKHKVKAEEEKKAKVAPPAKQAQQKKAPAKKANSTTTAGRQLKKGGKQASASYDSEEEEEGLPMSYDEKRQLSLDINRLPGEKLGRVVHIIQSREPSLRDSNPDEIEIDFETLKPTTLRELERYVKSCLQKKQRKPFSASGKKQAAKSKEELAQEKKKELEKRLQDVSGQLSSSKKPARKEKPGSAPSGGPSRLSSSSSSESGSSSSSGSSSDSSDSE
Target sequence in this assay (P40337 whole entry): as the sequence (P40337 whole entry) above

CWR22R = experiment: Antiproliferative activity against human 22Rv1 cells assessed as reduction in cell viability incubated for 48 hrs by MTT assay; format: functional, cell-based; conditions: 22Rv1, 48 h
[7] = target: T1, von Hippel-Lindau disease tumor suppressor; experiment: Binding affinity to VHL (unknown origin) assessed as dissociation constant by fluorescence polarization assay
[8] = target: von Hippel-Lindau disease tumor suppressor/Bromodomain-containing protein 4 (Homo sapiens, UniProt O60885+P40337); experiment: PROTAC activity at human VHL/BRD4 in human HeLa cells assessed as degradation of BRD4 incubated for 24 hrs by Western blot analysis; format: cell-based
[9] = target: Von Hippel-Lindau disease tumor suppressor/Elongin B/Elongin C (Homo sapiens, UniProt P40337); experiment: Inhibition of VHL/Elongin B/Elogin C (unknown origin) using FAM-DEALA-Hyp-YIPD as substrate by fluorescence polarization assay; format: protein-complex assay
[10] = PROTAC activity at VHL/N-terminal His-tagged human p38alpha expressed in […] assessed as p38alpha degradation
[11] = tested on: von Hippel-Lindau disease tumor suppressor/Mitogen-activated protein kinase 14; experiment: PROTAC activity at VHL/N-terminal His-tagged human p38alpha expressed in […] assessed as maximal degradation relative to control
[12] = target: T4, von Hippel-Lindau disease tumor suppressor/Androgen receptor (Homo sapiens, UniProt P10275+P40337); experiment: PROTAC activity at VHL/AR in human LNCaP cells assessed as maximum degradation of AR at 75 uM incubated for 16 hrs by Western blot analysis relative to control; format: cell-based
Target sequence in this assay (P10275 whole entry, looked up): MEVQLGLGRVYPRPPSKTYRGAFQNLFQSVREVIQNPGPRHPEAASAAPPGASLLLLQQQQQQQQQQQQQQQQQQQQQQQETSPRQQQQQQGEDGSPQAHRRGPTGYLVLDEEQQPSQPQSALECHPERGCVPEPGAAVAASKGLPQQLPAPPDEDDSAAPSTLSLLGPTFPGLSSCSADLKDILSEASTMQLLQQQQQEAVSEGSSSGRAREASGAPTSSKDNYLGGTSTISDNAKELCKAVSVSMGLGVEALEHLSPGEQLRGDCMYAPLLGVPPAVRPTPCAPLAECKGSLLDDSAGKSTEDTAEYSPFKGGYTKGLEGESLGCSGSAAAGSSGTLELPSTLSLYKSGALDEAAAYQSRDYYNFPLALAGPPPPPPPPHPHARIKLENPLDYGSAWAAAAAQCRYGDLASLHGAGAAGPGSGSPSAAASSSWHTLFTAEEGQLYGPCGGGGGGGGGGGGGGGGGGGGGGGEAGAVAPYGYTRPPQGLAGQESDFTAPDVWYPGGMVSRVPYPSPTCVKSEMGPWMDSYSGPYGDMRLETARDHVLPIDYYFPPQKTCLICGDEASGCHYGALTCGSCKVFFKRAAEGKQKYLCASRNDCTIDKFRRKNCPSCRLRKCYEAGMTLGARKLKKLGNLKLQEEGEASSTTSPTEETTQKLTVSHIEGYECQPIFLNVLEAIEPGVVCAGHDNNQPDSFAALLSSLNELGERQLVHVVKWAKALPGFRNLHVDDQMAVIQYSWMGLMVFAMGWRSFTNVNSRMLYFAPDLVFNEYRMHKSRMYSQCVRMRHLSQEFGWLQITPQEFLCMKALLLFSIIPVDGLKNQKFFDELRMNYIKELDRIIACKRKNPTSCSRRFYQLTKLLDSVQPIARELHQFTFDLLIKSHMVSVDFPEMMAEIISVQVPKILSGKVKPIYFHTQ
Target sequence in this assay (P40337 whole entry, looked up): as the sequence (P40337 whole entry) above

[13] = target: T4, von Hippel-Lindau disease tumor suppressor/Androgen receptor; experiment: PROTAC activity at VHL/AR in human LNCaP cells assessed as induction of AR degradation by Western blot analysis; format: cell-based
[14] = tested on: von Hippel-Lindau disease tumor suppressor/Epidermal growth factor receptor (Homo sapiens), P00533+P40337 [L858R,T790M]; experiment: PROTAC activity at VHL/EGFR L858R/T790M double mutant in human NCI-H1975 cells assessed as maximal degradation of EGFR incubated for 24 hrs by immunoblotting analysis relative to control; format: cell-based
[15] = target: T2, von Hippel-Lindau disease tumor suppressor/Bromodomain-containing protein 2; experiment: PROTAC activity at human VHL/BRD2 in human HeLa cells assessed as […] incubated for 16 hrs by Western blot analysis; format: cell-based
Target sequence in this assay (P25440 whole entry): as the sequence (P25440 whole entry) above
Target sequence in this assay (P40337 whole entry): as the sequence (P40337 whole entry) above

[16] = target: T3, von Hippel-Lindau disease tumor suppressor/Bromodomain-containing protein 3; experiment: PROTAC activity at human VHL/BRD3 in human HeLa cells assessed as […] incubated for 16 hrs by Western blot analysis; format: cell-based
Target sequence in this assay (Q15059 whole entry): as the sequence (Q15059 whole entry) above
Target sequence in this assay (P40337 whole entry): as the sequence (P40337 whole entry) above

[17] = tested on: von Hippel-Lindau disease tumor suppressor/Bromodomain-containing protein 4; experiment: PROTAC activity at human VHL/BRD4 in human HeLa cells assessed as maximum degradation of BRD4 measured after 18 hrs by Western blot analysis relative to control
[18] = target: T3, von Hippel-Lindau disease tumor suppressor/Bromodomain-containing protein 3; experiment: PROTAC activity at human VHL/BRD3 in human HeLa cells assessed as maximum degradation of BRD3 measured after 18 hrs by Western blot analysis relative to control; format: cell-based
[19] = target: T2, von Hippel-Lindau disease tumor suppressor/Bromodomain-containing protein 2; experiment: PROTAC activity at human VHL/BRD2 in human HeLa cells assessed as maximum degradation of BRD2 measured after 18 hrs by Western blot analysis relative to control; format: cell-based
Target sequence in this assay (P25440 whole entry, looked up): as the sequence (P25440 whole entry) above
Target sequence in this assay (P40337 whole entry, looked up): as the sequence (P40337 whole entry) above

[20] = PROTAC activity at human VHL/BRD4 in human HeLa cells assessed as degradation of BRD4 incubated for 16 hrs by Western blot analysis
[21] = tested on: von Hippel-Lindau disease tumor suppressor/Epidermal growth factor receptor (Homo sapiens), P00533+P40337 [UNDEFINED MUTATION]; experiment: PROTAC activity at VHL/EGFR Ex20ins mutant in human HeLa cells assessed as maximal degradation incubated for 24 hrs by immunoblot analysis relative to control; format: cell-based
[22] = target: T5, von Hippel-Lindau disease tumor suppressor/Epidermal growth factor receptor (Homo sapiens, UniProt P00533+P40337); experiment: PROTAC activity at VHL/EGFR Ex20ins mutant in human HeLa cells assessed as protein degradation incubated for 24 hrs by immunoblot analysis; format: cell-based
[23] = target: T5, von Hippel-Lindau disease tumor suppressor/Epidermal growth factor receptor; experiment: PROTAC activity at VHL/wild type EGFR in human OVCAR-8 cells assessed as protein degradation incubated for 24 hrs by immunoblot analysis; format: cell-based
[24] = target: T5, von Hippel-Lindau disease tumor suppressor/Epidermal growth factor receptor; experiment: PROTAC activity at VHL/wild type EGFR in human OVCAR-8 cells assessed as maximal degradation incubated for 24 hrs by immunoblot analysis relative to control; format: cell-based

T1 sequence (P40337 whole entry, the tested form may be a part): as the sequence (P40337 whole entry) above
Chain of von Hippel-Lindau disease tumor suppressor/Epidermal growth factor receptor (Homo sapiens), P00533+P40337 [L858R,T790M] (P00533 whole entry T790M/L858R): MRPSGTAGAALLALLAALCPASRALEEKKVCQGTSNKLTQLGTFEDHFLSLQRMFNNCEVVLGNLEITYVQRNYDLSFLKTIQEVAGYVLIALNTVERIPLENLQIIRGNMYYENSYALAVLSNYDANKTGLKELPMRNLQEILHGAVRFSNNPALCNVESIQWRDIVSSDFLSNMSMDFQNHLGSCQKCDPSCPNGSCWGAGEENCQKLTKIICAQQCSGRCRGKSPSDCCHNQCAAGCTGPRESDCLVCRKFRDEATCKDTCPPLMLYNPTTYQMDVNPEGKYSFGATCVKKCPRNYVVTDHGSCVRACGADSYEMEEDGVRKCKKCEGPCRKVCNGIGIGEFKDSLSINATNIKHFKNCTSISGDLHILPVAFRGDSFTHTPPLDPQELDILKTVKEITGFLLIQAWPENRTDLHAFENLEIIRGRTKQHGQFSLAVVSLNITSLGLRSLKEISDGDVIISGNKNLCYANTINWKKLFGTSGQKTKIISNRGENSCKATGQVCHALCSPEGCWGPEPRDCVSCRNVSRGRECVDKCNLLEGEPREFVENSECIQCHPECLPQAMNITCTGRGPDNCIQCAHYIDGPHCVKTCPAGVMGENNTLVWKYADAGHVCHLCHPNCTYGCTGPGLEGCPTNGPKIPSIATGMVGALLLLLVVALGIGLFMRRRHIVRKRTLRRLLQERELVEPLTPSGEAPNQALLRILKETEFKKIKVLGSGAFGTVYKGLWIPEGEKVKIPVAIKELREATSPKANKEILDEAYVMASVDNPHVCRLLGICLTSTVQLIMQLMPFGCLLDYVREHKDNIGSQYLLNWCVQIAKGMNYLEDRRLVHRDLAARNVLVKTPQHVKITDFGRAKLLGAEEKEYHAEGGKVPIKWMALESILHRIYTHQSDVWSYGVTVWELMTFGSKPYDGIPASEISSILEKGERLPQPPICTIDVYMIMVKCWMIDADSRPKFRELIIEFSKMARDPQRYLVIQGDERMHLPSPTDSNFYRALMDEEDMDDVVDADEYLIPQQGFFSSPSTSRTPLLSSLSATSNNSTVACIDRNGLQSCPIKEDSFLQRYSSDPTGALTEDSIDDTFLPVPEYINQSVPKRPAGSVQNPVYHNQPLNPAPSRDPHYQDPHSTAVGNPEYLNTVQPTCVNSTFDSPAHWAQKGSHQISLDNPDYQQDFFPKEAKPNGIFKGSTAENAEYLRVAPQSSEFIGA
Chain of von Hippel-Lindau disease tumor suppressor/Epidermal growth factor receptor (Homo sapiens), P00533+P40337 [L858R,T790M] (P40337 whole entry partner): as the sequence (P40337 whole entry) above

`CC(=O)N[C@H](C(=O)N1C[C@H](O)C[C@H]1C(=O)N[C@@H](C)c1ccc(-c2scnc2C)cc1)C(C)(C)C` gave a Kd [1] of 63 nM and an IC50 [2] of 130 nM.

With `Cc1ncsc1-c1ccc([C@H](C)NC(=O)[C@@H]2C[C@@H](O)CN2C(=O)[C@@H](NC(=O)COCCOCCOCCNC(=O)C[C@@H]2N=C(c3ccc(Cl)cc3)c3c(sc(C)c3C)-n3c(C)nnc32)C(C)(C)C)cc1` the Emax [3] was > 99%, the DC50 [4] was < 5 nM and the DC50 [5] was < 5 nM. The DC50 [6] was < 5 nM and the EC50 (CWR22R) was 90 nM.

Work on `Cc1ncsc1-c1ccc(CNC(=O)[C@@H]2C[C@@H](O)CN2C(=O)[C@H](NC(=O)C2(C#N)CC2)C(C)(C)C)cc1F` yielded a Kd [7] of 97 nM.

Work on `CC(=O)N[C@H](C(=O)N1C[C@H](O)[C@@H](F)[C@H]1C(=O)Nc1ccc(-c2scnc2C)cc1)C(C)(C)C` yielded a DC50 [8] of 10 nM.

`Cc1cc(-c2scnc2C)c(C)cc1CNC(=O)[C@@H]1C[C@@H](O)CN1C(=O)[C@H](NC(=O)C1(C#N)CC1)C(C)(C)C` gave a Kd [7] of 528 nM.

For `Cc1cc(CC(=O)N2C[C@H](O)C[C@H]2C(=O)NCc2ccc(-c3ocnc3C)cc2)on1`, the IC50 [9] was 12700 nM.

`Cc1cc(-c2scnc2C)ccc1[C@H](C)NC(=O)[C@@H]1C[C@@H](O)CN1C(=O)[C@H](NC(=O)C1(C#N)CC1)C(C)(C)C` showed a Kd [7] of 86 nM.

With `COc1cc2c(Oc3ccc(NC(=O)C4(C(=O)Nc5ccc(F)cc5)CC4)cc3F)ccnc2cc1OCCOCCOCCOc1cc(-c2scnc2C)ccc1CNC(=O)[C@@H]1C[C@@H](O)CC1C(=O)[C@H](C(C)C)C1Cc2ccccc2C1=O` (stereo not given in full) the DC50 [10] was 66.2 nM and the Emax [11] was 99.4%.

`Cc1cc([C@H](C(=O)N2C[C@H](S(=O)(=O)F)C[C@H]2C(=O)N[C@@H](CC(=O)N2CCC(C#Cc3ccc(C(=O)N[C@H]4C(C)(C)[C@H](Oc5ccc(C#N)c(Cl)c5)C4(C)C)cc3)CC2)c2ccc(-c3scnc3C)cc2)C(C)C)on1` showed an Emax [12] of 59% and a DC50 [13] of 212 nM.

`Cc1ncsc1-c1ccc(CNC(=O)[C@H]2C[C@H](O)CN2C(=O)[C@H](NC(=O)CCCCCOCCCCOCCCCOc2cc3ncnc(Nc4ccc(F)c(Cl)c4)c3cc2NC(=O)/C=C/CN(C)C)C(C)(C)C)cc1` gave an Emax [14] of 79.1%.

With `Cc1ncsc1-c1cc2c(cc1F)[C@@H](NC(=O)[C@@H]1C[C@@H](O)CN1C(=O)[C@H](NC(=O)C1(F)CC1)C(C)(C)C)CCCC2` the Kd [7] was 1040 nM.

In the case of `Cc1ncsc1-c1ccc([C@H](C)NC(=O)[C@H]2C[C@H](O)CN2C(=O)[C@H](NC(=O)COCCOCCOCCNC(=O)C[C@@H]2N=C(c3ccc(Cl)cc3)c3c(sc(C)c3C)-n3c(C)nnc32)C(C)(C)C)cc1`, the DC50 [15] is reported as 40 nM, the DC50 [16] is reported as 100 nM and the Emax [17] is reported as 100%. The Emax [18] was 100%, the Emax [19] was 98% and the DC50 [20] was 3 nM.

`COc1cc(-c2scnc2C)cc(OC)c1CNC(=O)[C@@H]1C[C@@H](O)CN1C(=O)[C@H](NC(=O)C1(C#N)CC1)C(C)(C)C` showed a Kd [7] of 6240 nM.

In the case of `Cc1ncsc1-c1ccc([C@H](C)NC(=O)[C@@H]2C[C@@H](O)CN2C(=O)[C@H](NC(=O)C2(C#N)CC2)C(C)(C)C)cc1F`, the Kd [7] is reported as 186 nM.

Work on `Cc1ncsc1-c1ccc(CNC(=O)[C@@H]2C[C@@H](O)CN2C(=O)[C@H](NC(=O)COCCOCCOc2ccc(-c3ccc4ncnc(Nc5ccc(OCc6cccc(F)c6)c(Cl)c5)c4c3)cc2)C(C)(C)C)cc1` yielded an Emax [21] of 68.8%, a DC50 [22] of 736 nM and a DC50 [23] of 39.2 nM. It also gave an Emax [24] of 97.6%.

Reference: ChEMBL document CHEMBL5512607, “Journey of Von Hippel-Lindau (VHL) E3 ligase in PROTACs design: From VHL ligands to VHL-based degraders” (Eur J Med Chem, 2024)
